One experiment relates to XBP-1s (5X-UPRE). The experiment can be described thus: 5X-UPRE luciferase reporter assay. The format is cell-based, human. On the procedure: HT1080 cells stably expressing the XBP-luciferase construct were grown in 60 mm dishes to 60-70% confluency. Following hypoxia treatment, cells were washed twice with PBS, lysed in 400 μl 1× reporter lysis buffer (RLB) (Promega, Madison Wis.) for 30 min at 24° C. Lysates (100 μl) were mixed with an equal volume of luciferase substrate (Promega), and assayed using a luminometer. For 5×-UPRE-luciferase reporter assays, cells were co-transfected with the appropriate reporter plasmid and a control plasmid (pSV40-beta-gal) using Lipofectamine 2000 (Invitrogen, San Diego, Calif.). Twenty-four hours after transfection, fresh media was added, and cells were treated with Tm or shifted to hypoxia. After treatment, cells were lysed in 1× RLB and analyzed for luciferase activity as described above. Beta-galactosidase activity was determined using the beta-galactosidase enzyme assay system (Promega).
A. XBP-luciferase reporter construct. […] After 24 hours, luciferase activity was analyzed in an automated plate reader. For each cell line, values are expressed as the percent inhibition of the median for Tm/Tg-treated wells, corrected for background. […] Values are expressed as the fold increases over uninduced levels. […] Cells were harvested, lysed, and analyzed by immunoblotting with antisera specific for HIF-1α (top), XBP-1s (middle) or actin (bottom). […]

Experiment [1] relates to HT1080 tet-off Flag-XBP-1s cells. The experiment can be described thus: Colony formation of HT1080 tet-off Flag-XBP-1s cells under hypoxia. Type of experiment: cell-based, human. Conditions: 2.5 μM, no dox, hypoxia 48 hours.

Molecules are shown by their SMILES.

Turning to `Cc1csc(NC(=O)CSc2nc3c(c(C(F)(F)F)c2C#N)CCC3)n1` [Compound 9389], the “diminution of 5X-UPRE luciferase response under hypoxia” value in the experiment with XBP-1s (5X-UPRE) (48 hours of hypoxia, vehicle 170-fold) is given as “more than 90%”. In the experiment on XBP-1s (5X-UPRE) (Tm plus irestatin, Tm alone ~12-fold), the “5X-UPRE luciferase induction over untreated cells” value is below 4 fold. In addition, in experiment [1], the “survival of hypoxic cells expressing Flag-XBP-1s” value is listed as “minimal effect”.

These data come from patent US20090291857A1, “METHODS TO IDENTIFY INHIBITORS OF THE UNFOLDED PROTEIN RESPONSE” (THE BOARD OF TRUSTEES OF THE LELAND STANFORD JUNIOR …, priority 2006, published 2009).
